In patent US20160151366A1, “Compositions and Methods for Treating Autism Spectrum Disorders” (Vanderbilt University, priority 2014, published 2016):
“Also recorded” adds a separate entry of the source.

Columns and labels:
[1] = system: SERT Ala56 mice and WT littermates; test: Biogenic monoamine levels within the CNS by HPLC; format: in vivo; conditions: i.p., QD×1 wk
Text: FIG. 17A-C. […] Respective brain sections were flash frozen and monoamine levels determined by HPLC. […] 5-Hydoxytryptamine (5-HT), Dopamine (DA), Norepinephrine (NE)
FIG. 19A-C. […] Respective brain sections were flash frozen and monoamine levels determined by HPLC. […] 5-Hydoxytryptamine (5-HT), Dopamine (DA), Norepinephrine (NE)
Respective brain sections were flash frozen and monoamine levels determined by HPLC.

SERT Ala56 mice [2] = test: DOI-induced head twitch (5-HT2A receptor hypersensitivity); format: in vivo; conditions: for CNS 5-HT2A receptor hypersensitivity (DOI-induced head-twitch response): adult SERT Ala56 mice, chronic administration, dose not stated; for SERT Ala56-mediated increases in DOI-induced head twitches: QD×1 wk
Text: Two-Way ANOVA, followed by post-hoc Bonferroni's multiple comparison tests. *p<0.05, **p<0.01
FIG. 20A-B. […] Two-Way ANOVA, followed by post-hoc Bonferroni's multiple comparison tests. **p<0.01, ***p<0.001

SERT Ala56 mice [3] = test: 8-OH-DPAT-induced hypothermia (5-HT1A receptor hypersensitivity); format: in vivo
Text: Similarly, both drugs normalize 5-HT1A receptor hypersensitivity seen in adult SERT Ala56 mice as monitored by 8-OHDPAT induced hypothermia responses. […] […].

SERT Ala56 mice [4] = test: Tube Test for Social Dominance; format: in vivo; conditions: for SERT Ala56 mediated social deficits in the Tube Test: SERT Ala56 mice; for Effect of treatment on its own in the Tube Test: wildtype mice, chronic treatment 1 week
Text: FIG. 9. […] SERT Ala56 mice display social deficits in the Tube Test compared to their SERT Gly56 littermates.
FIG. 10. […] SERT Ala56 mice display social deficits in the Tube Test compared to their SERT Gly56 littermates.
FIG. 11. […] Chi Square analysis with Yate's Correction. n.s.=not significant, *p<0.05, ***p<0.001
FIG. 12. […] Chi Square analysis with Yate's Correction. n.s.=not significant, *p<0.05, ***p<0.001
Chi Square analysis with Yate's Correction. n.s.=not significant, *p<0.05, ***p<0.001
As described herein, SERT Ala56 mice have deficits in social behaviors in the Tube Test for Social Dominance. Studies were also conducted to determine the effect of specific p38 MAPK inhibitors on social deficits in the animal of ASD. Mice were treated with either saline or a specific p38 MAPK inhibitor for one week.
SERT Ala56 mice display social deficits in the Tube Test compared to their SERT Gly56 littermates.

IL-1β = conditions: in vivo treatment; cited from earlier work
[5] = system: SERT Ala56 mice and WT counterparts; test: Midbrain expression of SERT after chronic treatment; format: in vivo; conditions: 10 mg/kg, QD, i.p.×1 wk; SERT Ala56 mice or WT counterparts
[6] = chronic 10 mg/kg, i.p., DOI 1.0 mg/kg
[7] = chronic treatment for 1 week, dose not stated

## CN1CCN(c2cc(-c3ccncc3)c(-c3ccc4ccccc4c3)nn2)CC1 [MW150]
[1]; 5 mg/kg
  Biogenic monoamine levels (5-HT, DA, NE) in midbrain, hippocampal or frontal cortex samples: No differences between genotype or treatment group were found
SERT Ala56 mice [2]; acute, single treatment 5 mg/kg, i.p., DOI 1.0 mg/kg
  SERT Ala56-mediated increases in DOI-induced head twitch: not capable of reversing; also recorded: failed to mitigate
SERT Ala56 mice [2]
  CNS 5-HT2A receptor hypersensitivity (DOI-induced head-twitch response): normalize CNS 5-HT2A receptor hypersensitivity
SERT Ala56 mice [2]; chronic 5 mg/kg, i.p., DOI 1.0 mg/kg
  SERT Ala56-mediated increases in DOI-induced head twitches: mitigates
SERT Ala56 mice [2]; [6]
  SERT Ala56-mediated increases in DOI-induced head twitches: mitigates
SERT Ala56 mice [3]; 5 mg/kg, i.p. QD×1 wk
  SERT Ala56-mediated potentiation of 8-OH-DPAT-induced hypothermia: attenuates
SERT Ala56 mice [3]; 10 mg/kg, i.p. QD×1 wk
  SERT Ala56-mediated potentiation of 8-OH-DPAT-induced hypothermia: attenuates
SERT Ala56 mice [4]; 5 mg/kg, i.p., QD×1 wk
  SERT Ala56 mediated social deficits in the Tube Test: attenuates SERT Ala56-mediated social deficits; also recorded: reverses these social deficits
SERT Ala56 mice [4]; 10 mg/kg, i.p., QD×1 wk
  SERT Ala56 mediated social deficits in the Tube Test: attenuates SERT Ala56-mediated social deficits
SERT Ala56 mice [4]; [7]
  SERT Ala56 mediated social deficits in the Tube Test: reverses these social deficits; also recorded: reverse social behavior deficits
SERT Ala56 mice [4]
  Effect of treatment on its own in the Tube Test: no effects on its own; also recorded: Neither dose of MW150 was found to exert any effects on its own; also recorded: Neither dose of MW108 or MW150 was found to exert any effects on their own

## CN(C)c1cc(-c2ccncc2)c(-c2ccc3ccccc3c2)nn1 [MW108]
[1]; 10 mg/kg
  Biogenic monoamine levels (5-HT, DA, NE) in midbrain, hippocampal or frontal cortex samples: No differences between genotype or treatment group were found
IL-1β
  LPS-induced increases in IL-1β within the CNS: attenuate lipopolysaccharide (LPS)-induced increases in IL-1β
[5]
  Midbrain expression of SERT: No changes in SERT expression
SERT Ala56 mice [2]
  CNS 5-HT2A receptor hypersensitivity (DOI-induced head-twitch response): normalize CNS 5-HT2A receptor hypersensitivity
SERT Ala56 mice [2]; [6]
  SERT Ala56-mediated increases in DOI-induced head twitches: dose-dependently attenuates
SERT Ala56 mice [3]; i.p., QD×1 wk, dose not stated
  SERT Ala56-mediated potentiation of 8-OH-DPAT-induced hypothermia: reduced this effect, albeit insignificantly
SERT Ala56 mice [4]; 10 mg/kg, i.p., QD×1 wk
  SERT Ala56 mediated social deficits in the Tube Test: dose-dependently attenuate
SERT Ala56 mice [4]; [7]
  SERT Ala56 mediated social deficits in the Tube Test: reverses these social deficits; also recorded: reverse social behavior deficits
SERT Ala56 mice [4]
  Effect of treatment on its own in the Tube Test: no effect on its own; also recorded: Neither dose of MW108 was found to exert any effects on its own; also recorded: Neither dose of MW108 or MW150 was found to exert any effects on their own
